Data reported in PMC5041986 (Oncotarget, 2016).

Legend:
[1] = tested on: RT-112 cells; experiment: MTT cell viability assay; assay type: cell-based; conditions: 72 h, mean
Protocol: (§1) Cells were seeded in 96-well plates and exposed to DMSO, or indicated compounds for 72 hours. Cell viability was assessed using the 3-(4,5-dimethylthiazol-2-yl)-2,5-diphenyltetrazolium bromide (MTT) assay as described previously [46]. Briefly, 100 μl of 0.5 mg/ml MTT were added to each well and incubated at 37°C for 1 hour. After that, 100 μl of extraction reagents (0.1 M sodium acetate buffer for suspension cells or DMSO for attached cells) were added to each well to lyse cells and absorbance at 550 nm was measured. Cell viability was expressed as the percentage of surviving cells in drug-treated versus DMSO-treated control cells (which was considered as 100% viability).

[2] = tested on: Hep3B cells; experiment: MTT cell viability assay; assay type: cell-based; conditions: 72 h, mean
Protocol: as §1

[3] = tested on: SNU-16 cells; experiment: MTT cell viability assay; assay type: cell-based; conditions: SNU-16, 5 μM, 72 h, mean
Protocol: as §1

[4] = tested on: PLC/PRF/5 cells; experiment: MTT cell viability assay; assay type: cell-based; conditions: PLC5/PRF/5, 5 μM, 72 h, mean
Protocol: as §1

[5] = tested on: RT-112 tumor xenografts; experiment: RT-112 xenograft model; assay type: in vivo; conditions: 5 mg/kg, ip, qwk, nude mice
Protocol: Tumors were measured weekly using calipers. Tumor volume (mm^3) was calculated from w^2×l/2 (w = width, l= length in mm of the tumor).

[6] = tested on: RT-112 cells; experiment: SA-β-galactosidase staining (senescence); assay type: cell-based
Protocol: Cells were seeded in 6-well plates and treated with indicated agents for 24h. Senescence was measured by Senescence β-Galactosidase Staining Kit according to the manufacture's instruction (Cell Signaling Technology, Danvers, MA, USA).

[7] = tested on: RT-112 cells; experiment: Flow cytometric cell cycle analysis; assay type: cell-based; conditions: 48 h to 72 h, flow cytometry
Protocol: Cells were seeded in 6-well plates and treated with DMSO or indicated compounds at various concentrations for the indicated times. After treatment, the cells were harvested by trypsinization, washed with PBS, and the pellets were fixed in ice-cold 70% ethanol at -20°C overnight. After centrifugation, the cells were incubated for 15 minutes at room temperature in 0.1 mL of phosphate-citric acid buffer (0.2 M NaHPO4, 0.1 M citric acid, and pH 7.8) and then stained with propidium iodide staining buffer containing Triton X-100 (0.1%, v/v), RNase A (100 μg/mL), and propidium iodide (80 μg/mL) for 30 minutes in the dark. DNA contents were analyzed by flow cytometry with CellQuest software (Becton Dickinson, Mountain View, CA, USA). The results were obtained from three independent experiments and the representative data were shown in Supplementary Figure S8 and S9.

Row | SMILES | Viability (% of control cells) RT-112 (10 μM) [1] | Viability (% of control cells) Hep3B (5 μM) [2] | Viability (% of control cells) SNU-16 (5 μM) [3] | Viability (% of control cells) PLC5/PRF/5 (5 μM) [4] | Viability (% of control cells) RT-112 (5 μM) [1] | other results
1 | COc1c(Cl)c(NC(=O)N(C)c2cc(-c3ccco3)ncn2)c(Cl)c(OC)c1Cl [MPT0L154] | 76.1 % of control cells | – | – | – | – | –
2 | COc1c(Cl)c(NC(=O)N(C)c2cc(-c3ccc(F)cc3)ncn2)c(Cl)c(OC)c1Cl [MPT0L155] | 44.4 % of control cells | 72.8 % of control cells | 80.5 % of control cells | 55.3 % of control cells | 92.6 % of control cells | –
3 | COc1c(Cl)c(NC(=O)N(C)c2cc(-c3ccc(Cl)cc3)ncn2)c(Cl)c(OC)c1Cl [MPT0L156] | 34.8 % of control cells | 54.3 % of control cells | 76.7 % of control cells | 44.4 % of control cells | 98.3 % of control cells | –
4 | CCN1CCN(c2ccc(-c3cc(N(C)C(=O)Nc4c(Cl)c(OC)c(Cl)c(OC)c4Cl)ncn3)cc2)CC1 [MPT0L182] | 8.6 % of control cells | 96.3 % of control cells | 63.2 % of control cells | 78.3 % of control cells | 95.6 % of control cells | –
5 | N.N.[Cl][Pt][Cl] [cisplatin, reference compound] | – | – | – | – | – | tumor growth inhibition (% TGI) [5]: 56.3%
6 | COc1cccc2c1C(=O)c1c(O)c3c(c(O)c1C2=O)C[C@@](O)(C(=O)CO)C[C@@H]3O[C@H]1C[C@H](N)[C@H](O)[C@H](C)O1 [doxorubicin, reference compound] | – | – | – | – | – | senescence (β-galactosidase activity) [6]: increased β-galactosidase activity
7 | CC(=O)O[C@H]1C(=O)[C@@]2(C)[C@H]([C@H](OC(=O)c3ccccc3)[C@]3(O)C[C@H](OC(=O)[C@H](O)[C@@H](NC(=O)c4ccccc4)c4ccccc4)C(C)=C1C3(C)C)[C@]1(OC(C)=O)CO[C@@H]1C[C@@H]2O [paclitaxel] | – | – | – | – | – | accumulation of the sub-G1 phase (apoptotic cell death) [7]: induced pronounced apoptosis
